Measurements published in patent US7939554B2, “Protein phosphatase inhibitors” (The Cleveland Clinic Foundation, priority 2006, dated 2011).

Biological target: T1, PTPase CD45 (Homo sapiens, UniProt P08575)
T1 construct: endogenous in cells; host or cells: Jurkat
T1 sequence (P08575 26-1306): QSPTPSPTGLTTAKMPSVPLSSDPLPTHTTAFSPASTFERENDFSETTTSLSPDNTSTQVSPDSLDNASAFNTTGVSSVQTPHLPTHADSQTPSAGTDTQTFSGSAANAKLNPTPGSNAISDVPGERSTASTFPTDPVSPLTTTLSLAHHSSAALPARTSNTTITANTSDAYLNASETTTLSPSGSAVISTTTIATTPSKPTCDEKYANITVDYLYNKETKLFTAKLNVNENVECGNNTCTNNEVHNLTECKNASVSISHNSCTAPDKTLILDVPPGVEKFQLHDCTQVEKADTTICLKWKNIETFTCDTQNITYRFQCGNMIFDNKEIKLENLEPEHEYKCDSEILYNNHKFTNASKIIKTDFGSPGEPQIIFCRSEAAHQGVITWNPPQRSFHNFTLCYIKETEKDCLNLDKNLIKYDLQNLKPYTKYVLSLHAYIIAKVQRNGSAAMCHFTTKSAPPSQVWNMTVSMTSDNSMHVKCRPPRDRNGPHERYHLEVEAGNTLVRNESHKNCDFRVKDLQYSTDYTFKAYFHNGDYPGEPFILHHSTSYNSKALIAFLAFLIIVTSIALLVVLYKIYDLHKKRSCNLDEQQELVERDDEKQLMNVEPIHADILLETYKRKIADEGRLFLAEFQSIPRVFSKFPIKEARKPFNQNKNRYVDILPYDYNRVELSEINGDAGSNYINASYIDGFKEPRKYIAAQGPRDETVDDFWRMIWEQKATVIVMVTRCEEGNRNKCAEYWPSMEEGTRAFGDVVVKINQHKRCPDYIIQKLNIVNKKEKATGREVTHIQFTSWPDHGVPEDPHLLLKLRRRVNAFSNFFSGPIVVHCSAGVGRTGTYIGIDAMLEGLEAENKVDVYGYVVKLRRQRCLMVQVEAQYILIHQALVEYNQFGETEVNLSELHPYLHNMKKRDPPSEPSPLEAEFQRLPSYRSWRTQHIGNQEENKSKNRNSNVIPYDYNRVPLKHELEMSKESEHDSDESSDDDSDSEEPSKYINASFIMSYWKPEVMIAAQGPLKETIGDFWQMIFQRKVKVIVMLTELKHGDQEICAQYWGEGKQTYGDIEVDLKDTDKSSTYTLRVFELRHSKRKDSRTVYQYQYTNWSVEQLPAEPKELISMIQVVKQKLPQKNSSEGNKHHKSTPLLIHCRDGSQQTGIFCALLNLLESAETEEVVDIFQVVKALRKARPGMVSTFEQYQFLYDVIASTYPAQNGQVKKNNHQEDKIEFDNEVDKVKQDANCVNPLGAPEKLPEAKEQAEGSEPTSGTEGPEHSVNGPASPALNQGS
Experiment: pLck-pY505 levels in L5-treated Jurkat cells
Assay type: cell-based
Details: FIG. 4D
Procedure: Jurkat cells in culture medium (3×10^6 cells/ml, 1 ml/tube) were treated with agents for designated times at room temperature. After brief centrifuging in a microfuge (4,000 rpm, 2 min), the cell pellet was lysed on ice for 30 min in […] of cold lysis buffer (1% NP40, 50 mM Tris, pH 7.4, 150 mM NaCl, 20 mM NaF, 0.2 mM Na3VO4 and 1 mM Na3MO4) containing a cocktail of proteinase inhibitors (Sigma, 1 tablet/10 ml). The lysates were cleared by centrifuging (14,000 rpm, 10 min) in a microfuge at 4° C. to remove insoluble parts, mixed with equal volume of 2×SDS-PAGE sample buffer, boiled for 5 min and analyzed (˜3×10^5 cells/well) by SDS-PAGE/Western blotting. Relative intensities of phosphotyrosine bands were quantified through densitometry analysis.
To assess the effects of L5 on other phosphatases, pERK1/2 and pLck-pY505 in L5-treated Jurkat cells were quantified. SHP-2 is known to be a positive mediator of pERK1/2 whereas pLck-pY505 is dephosphorylated by PTPase CD45.

O=C1C=CC(=O)C(c2cc(Cl)ccc2Cl)=C1 [L5]
effect on pLck-pY505: little effects
